Patent US4711958A, “Morpholine containing amino acid derivatives” (priority 1986, dated 1987)

Key:
renin [1] = target: T1, renin (Homo sapiens, UniProt P00797); assay: Inhibitory effect on human renin-sheep renin substrate reaction system in vitro; assay type: biochemical; conditions: pH 7.4, 37° C., 15 minutes, read-out: IC50 (molar concentration producing a 50% inhibition)
T1 sequence (P00797 67-406): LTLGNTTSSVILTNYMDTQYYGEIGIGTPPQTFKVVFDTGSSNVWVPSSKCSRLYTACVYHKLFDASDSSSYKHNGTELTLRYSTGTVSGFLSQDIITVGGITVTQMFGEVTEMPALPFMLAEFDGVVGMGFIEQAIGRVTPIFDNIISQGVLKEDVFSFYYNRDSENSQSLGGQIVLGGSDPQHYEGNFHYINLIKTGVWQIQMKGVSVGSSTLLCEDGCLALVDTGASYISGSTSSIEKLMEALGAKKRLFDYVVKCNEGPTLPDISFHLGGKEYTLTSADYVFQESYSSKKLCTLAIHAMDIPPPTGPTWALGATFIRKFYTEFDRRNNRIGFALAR
Description: Inhibitory effect on human renin-sheep renin substrate reaction system in vitro
The mixture was incubated for 15 minutes on a water bath at 37° C., and the reaction mixture was allowed to stand for 5 minutes on a water bath at 100° C. to stop the reaction. After cooling, 200 μl of the solution was taken up and the amount of angiotensin I produced by the addition of renin was determined by radioimmunoassay using renin riabead kit (DAINABOT).
The inhibitory effect was calculated by the following equation.
As a control, the same procedure as above was carried out by using 50 μl of dimethyl sulfoxide alone in place of the 50 μl of dimethyl sulfoxide solution containing an amino acid compound of the present invention. [formula]

renin [2] = target: T1, renin; assay: Renin inhibitory effect in a human high renin plasma; assay type: biochemical; set-up: 500 μl of human high renin plasma; from tissue; host or cells: human high renin plasma; conditions: pH 7.0, 37° C., 60 minutes, read-out: IC50 (molar concentration producing a 50% inhibition)
Description: Renin inhibitory effect in a human high renin plasma
A mixture of 350 μl of a 0.5 M phosphate buffer (pH 7.0) containing 14 mM EDTA.2Na and a 0.3% neomycin sulfate, 50 μl of a 20 mM L-phenylalanyl-L-alanyl-L-proline as an angiotensin converting enzyme inhibitor and 100 μl of dimethyl sulfoxide solution containing an amino acid derivative of the present invention was added to 500 μl of human high renin plasma. Two hundred μl of the mixture was placed on an ice bath, at 4° C., and remaining mixture (800 μl ) was incubated for 60 minutes at 37° C. on a water bath. Two hundred μl of the incubated remaining mixture was chilled immediately on an ice bath, and the amount (A) of angiotensin I produced was determined by radioimmunoassay using renin riabead kit (DAINABOT).
The amount (B) of angiotensin I in the mixture placed on an ice bath at 4° C. was also determined by radioimmunoassay.
As a control, the same procedure as above was carried out by using 100 μl of dimethyl sulfoxide alone in place of 100 μl of dimethyl sulfoxide solution containing an amino acid compound of the present invention.
The net amount was estimated as the difference between A and B.
The inhibitory effect was calculated by the following equation. [formula]

plasma renin = assay: Renin inhibitory effect in plasma on common marmoset (high renin state, oral); assay type: in vivo; conditions: oral 30 mg/kg
Description: Renin inhibitory effect in plasma on common marmoset
The experiment was carried out by using common marmoset as described in K. G. Hofbauer et al., Clinical and Experimental hypertension, Vol. A5, Nos. 7 & 8 (1983), pages 1237-1247.
Furosemide was administered orally three times to common marmoset having a lower salt diet at 15 mg per Kilogram per day every other day to create a high renin state. The experiment was carried out on the third day after the last furosemide dose.
Conscious female and male marmosets weighing 335 to 375 g were placed into small restraining chair, and by using a catheter into the femoral artery, blood collecting was carried out at intervals of 20, 40, 60, 120, 180 and 300 minutes.
Collected blood samples were centrifuged at 1200 g for 15 minutes at 4° C. Two hundred μl of the plasma was taken up and incubated for 60 minutes at 37° C., and the plasma renin activity was measured by radioimmunoassay using renin riabead kit (DAINABOT).
Compound A of this invention was dissolved in dilute hydrochloric acid, and administered orally at single dose of 30 mg/kg using catheter.

[3] = Hypotensive effect in marmoset (high renin state, oral); assay type: in vivo, common marmoset; conditions: conscious male marmoset, oral 30 mg/kg, tail cuff, Control 89.3
Description: Hypotensive effect in marmoset
The experiment was carried out by using common marmoset as described in K. G. Hofbauer et al., Clinical and Experimental Hypertension, Vol. A5, Nos. 7 & 8 (1983), pages 1237-1247.
Furosemide was administered orally three times to common marmoset at 15 mg per kilogram per day every other day to create a high renin state. Blood pressure of conscious marmoset was measured on the third day after the last furosemide dose.
A conscious male marmoset weighing 460 g was placed into small restraining chair. Blood pressure was measured on the tail cuff method using pretismograph. Compound C was dissolved in dilute hydrochloric acid, and administered orally at 30 mg/kg by using a catheter.

Structure (SMILES)	IC50 (renin [1]) [nM]	IC50 (renin [2]) [nM]	other results
O=C(N[C@@H](Cc1c[nH]cn1)C(=O)N[C@@H](CC1CCCCC1)C(O)C(=O)N1CCOCC1)C(CC(=O)N1CCOCC1)Cc1cccc2ccccc12 (mixture of isomers) [Compound F, 4-[(2RS, 3S)-3-{N-[2-(1-Naphthylmethyl)-3-(morpholinocarbonyl)propionyl]-L-histidyl}amino-4-cyclohexyl-2-hydroxybutyryl]morpholine]	370	130	
CC(C)OC(=O)C(O)[C@H](CC1CCCCC1)NC(=O)[C@H](Cc1c[nH]cn1)NC(=O)C(CC(=O)N1CCOCC1)Cc1cccc2ccccc12 (mixture of isomers) [Compound A, (2RS, 3S)-3-{N-[2-(1-Naphthylmethyl)-3-(morpholinocarbonyl)propionyl]-L-histidyl)amino-4-cyclohexyl-2-hydroxybutyric acid isopropyl ester]	6.5	10	Inhibition percent of plasma renin activity (plasma renin; 20 minutes after administration, 3 animals): 68.2%; Inhibition percent of plasma renin activity (plasma renin; 40 minutes after administration, 3 animals): 88.1%; Inhibition percent of plasma renin activity (plasma renin; 60 minutes after administration, 3 animals): 87.1%; Inhibition percent of plasma renin activity (plasma renin; 120 minutes after administration, 3 animals): 88.8%; Inhibition percent of plasma renin activity (plasma renin; 180 minutes after administration, 3 animals): 79.6%; Inhibition percent of plasma renin activity (plasma renin; 300 minutes after administration, 2 animals): 53.4%
CC(C)OC(=O)[C@H](O)[C@H](CC1CCCCC1)NC(=O)[C@H](Cc1c[nH]cn1)NC(=O)C(CC(=O)N1CCOCC1)Cc1cccc2ccccc12 (stereo partly drawn) [Compound D, (2R, 3S)-3-{N-[2-(1-Naphthylmethyl)-3-(morpholinocarbonyl)propionyl]-L-histidyl}amino-4-cyclohexyl-2-hydroxybutyric acid isopropyl ester]	2.4	4.7	
O=C(N[C@@H](Cc1c[nH]cn1)C(=O)N[C@@H](CC1CCCCC1)C(O)C(=O)OC1CCCC1)C(CC(=O)N1CCOCC1)Cc1cccc2ccccc12 (mixture of isomers) [Compound C, (2RS, 3S)-3-{N-[2-(1-Naphthylmethyl)-3-(morpholinocarbonyl)propionyl]-L-histidyl)amino-4-cyclohexyl-2-hydroxybutyric acid cyclopentyl ester]	2.5	6.8	Blood pressure ([3]; 0.5 hours after administration): 78.0 mmHg; Blood pressure ([3]; 1 hour after administration): 73.3 mmHg; Blood pressure ([3]; 2 hours after administration): 66.0 mmHg; Blood pressure ([3]; 3 hours after administration): 71.0 mmHg; Blood pressure ([3]; 5 hours after administration): 71.8 mmHg; Blood pressure ([3]; 7 hours after administration): 71.7 mmHg
O=C(N[C@@H](Cc1c[nH]cn1)C(=O)N[C@@H](CC1CCCCC1)C(O)C(=O)OC1CCCCC1)C(CC(=O)N1CCOCC1)Cc1cccc2ccccc12 (mixture of isomers) [Compound E, (2RS, 3S)-3-{N-[2-(1-Naphthylmethyl)-3-(morpholinocarbonyl)propionyl]-L-histidyl}amino-4-cyclohexyl-2-hydroxybutyric acid cyclohexyl ester]	6.6	30	
CC(C)CNC(=O)C(O)[C@H](CC1CCCCC1)NC(=O)[C@H](Cc1c[nH]cn1)NC(=O)C(CC(=O)N1CCOCC1)Cc1cccc2ccccc12 (mixture of isomers) [Compound B, (2RS, 3S)-3-{N-[2-(1-Naphthylmethyl)-3-(morpholinocarbonyl)propionyl]-L-histidyl}amino-4-cyclohexyl-2-hydroxy-N-isobutylbutyramide]	290	260	
O=C(N[C@@H](Cc1c[nH]cn1)C(=O)N[C@@H](CC1CCCCC1)C(O)C(=O)OC(CF)CF)C(CC(=O)N1CCOCC1)Cc1cccc2ccccc12 (mixture of isomers) [Compound G, (2RS, 3S)-3-{N-[2-(1-Naphthylmethyl)-3-(morpholinocarbonyl)propionyl]-L-histidyl}amino-4-cyclohexyl-2-hydroxybutyric acid 1,3-difluoro-2-propyl ester]	2.9	4.1	
